# Test: log P of the solvents used in the transglycosylation (Table 1)
# Type: physicochemical
# Details: property of the dialkyl amide solvent; method not described
row,Structure (SMILES),logP
1,"CCCCCCCC(=O)N(C)C [CDMA, caprylic dimethyl amide]",1.42
2,"CC(O)C(=O)N(C)C (centres unmarked) [LDMA, lactic acid dimethyl amide]",-0.69

# Source: patent EP2138586A1, “Process for the regioselective preparation of disaccharides or oligosaccharides” (Cognis IP Management GmbH, priority 2008, dated 2009)
